This note sets out measurements from PMC12606866, “Phenolic Compounds from Diarthron iranica: Enzymatic and in Silico Insights Into α-Amylase Inhibitory Activity” (Iranian Journal of Pharmaceutical Research : IJPR, 2025).

Values after ≈ are worked out from the molar mass of the structure shown.

The target in the experiment is α-amylase. The experiment can be described thus: DNS colorimetric alpha-amylase inhibition assay with starch. It counts as biochemical.
In the case of `COc1cc(O[C@@H]2O[C@H](CO[C@@H]3OC[C@@H](O)[C@H](O)[C@H]3O)[C@@H](O)[C@H](O)[C@H]2O)c2c(=O)cc(-c3ccc(O)cc3)oc2c1` [compound 1, 5-[(β)-D-xylopyranoside-(1'''→6'')-β-D-glucopyranoside] 7-Methoxy apigenin], the half-inhibitory concentration (IC50) is on record as 1.32 mg/mL (≈ 2280 µM). Take `COc1cc2cc(Oc3ccc4ccc(=O)oc4c3)c(=O)oc2cc1O` [compound 2, 6'-Methoxy-7'-hydroxy-3'-O-7-bicoumarin]: the IC50 was found to be 0.71 mg/mL (≈ 2020 µM). Against the preceding compound, the IC50 is about 1.9-fold lower. For the compound `COc1cc([C@H]2OC[C@H]3[C@@H]2CO[C@@H]3c2ccc(O)c(OC)c2)ccc1O` [compound 3, 4,4'-dihydroxy-3,3'-dimethoxy-7, 9’:7’, 9-diepoxylignan], the half-inhibitory concentration (IC50) was found to be 1.81 mg/mL (≈ 5050 µM). The compound `O=c1cc(-c2ccc(O)c(O)c2)oc2cc(O)cc(O)c12` [luteolin, reference compound] displayed an IC50 of 0.63 mg/mL (≈ 2200 µM).

The term IC50 denotes the concentration at which inhibition is half-maximal. High values mean lower potency, low ones higher potency.
